In the NIST ThermoML archive (doi:10.1021/je500513b):

Experiment: mn = molality of the nth substance listed, in mol/kg
Details: 100 kPa, Liquid, Mettler Toledo inLab 710

CCCCCCCCCCCC[N+](C)(C)CCCCCC[N+](C)(C)CCCCCCCCCCCC.[Br-].[Br-] + O
Details | electrical conductivity [S/m]
308.15 K, m1 = 0.00167 | 0.0318
308.15 K, m1 = 0.00174 | 0.0325
308.15 K, m1 = 0.00182 | 0.0332
308.15 K, m1 = 0.0019 | 0.0339
308.15 K, m1 = 0.002 | 0.0346
313.15 K, m1 = 0.00057 | 0.0163
313.15 K, m1 = 0.00061 | 0.0171
313.15 K, m1 = 0.00065 | 0.0182
313.15 K, m1 = 0.00068 | 0.0191
313.15 K, m1 = 0.00071 | 0.02
313.15 K, m1 = 0.00075 | 0.021
313.15 K, m1 = 0.0008 | 0.0222
313.15 K, m1 = 0.00083 | 0.023
313.15 K, m1 = 0.00087 | 0.024
313.15 K, m1 = 0.00091 | 0.0248
313.15 K, m1 = 0.00095 | 0.0259
313.15 K, m1 = 0.001 | 0.0269
313.15 K, m1 = 0.00105 | 0.0278
313.15 K, m1 = 0.00111 | 0.0288
313.15 K, m1 = 0.00118 | 0.0299
313.15 K, m1 = 0.00125 | 0.0308
313.15 K, m1 = 0.00133 | 0.0321
313.15 K, m1 = 0.00143 | 0.0333
313.15 K, m1 = 0.00154 | 0.0347
313.15 K, m1 = 0.0016 | 0.0353
313.15 K, m1 = 0.00167 | 0.036
313.15 K, m1 = 0.00174 | 0.0368
313.15 K, m1 = 0.00182 | 0.0376
313.15 K, m1 = 0.0019 | 0.0384
313.15 K, m1 = 0.002 | 0.0392
318.15 K, m1 = 0.00057 | 0.0184
318.15 K, m1 = 0.00061 | 0.0193
318.15 K, m1 = 0.00065 | 0.0206
318.15 K, m1 = 0.00069 | 0.0222
318.15 K, m1 = 0.00074 | 0.0237
318.15 K, m1 = 0.0008 | 0.0254
318.15 K, m1 = 0.00085 | 0.0265
318.15 K, m1 = 0.00091 | 0.0281
318.15 K, m1 = 0.00095 | 0.0292
318.15 K, m1 = 0.001 | 0.0302
318.15 K, m1 = 0.00104 | 0.031
318.15 K, m1 = 0.00109 | 0.0318
318.15 K, m1 = 0.00114 | 0.0328
318.15 K, m1 = 0.00119 | 0.0337
318.15 K, m1 = 0.00125 | 0.0347
318.15 K, m1 = 0.00132 | 0.0358
318.15 K, m1 = 0.00139 | 0.0368
318.15 K, m1 = 0.00147 | 0.038
318.15 K, m1 = 0.00156 | 0.0393
318.15 K, m1 = 0.00167 | 0.0406
318.15 K, m1 = 0.00172 | 0.0413
318.15 K, m1 = 0.00179 | 0.042
318.15 K, m1 = 0.00185 | 0.0428
318.15 K, m1 = 0.00192 | 0.0437
318.15 K, m1 = 0.002 | 0.0446
323.15 K, m1 = 0.00065 | 0.022
323.15 K, m1 = 0.00069 | 0.0235
323.15 K, m1 = 0.00074 | 0.025
323.15 K, m1 = 0.0008 | 0.0271
323.15 K, m1 = 0.00085 | 0.0288
323.15 K, m1 = 0.00091 | 0.0305
323.15 K, m1 = 0.00095 | 0.0317
323.15 K, m1 = 0.001 | 0.0331
323.15 K, m1 = 0.00104 | 0.0343
323.15 K, m1 = 0.00109 | 0.0355
323.15 K, m1 = 0.00114 | 0.0367
323.15 K, m1 = 0.00119 | 0.038
323.15 K, m1 = 0.00125 | 0.0393
323.15 K, m1 = 0.00132 | 0.0406
323.15 K, m1 = 0.00139 | 0.0418
323.15 K, m1 = 0.00147 | 0.0433
323.15 K, m1 = 0.00156 | 0.0443
323.15 K, m1 = 0.00167 | 0.0455
323.15 K, m1 = 0.00172 | 0.0464
323.15 K, m1 = 0.00179 | 0.0473
323.15 K, m1 = 0.00185 | 0.0482
323.15 K, m1 = 0.00192 | 0.0491
323.15 K, m1 = 0.002 | 0.0501
